Measurements as given in patent publication US11147881B2, “Controlled drug release liposome compositions and methods thereof” (TAIWAN LIPOSOME COMPANY, LTD., priority 2013, dated 2021).

How the values were obtained:
[1] = Precipitation study of irinotecan with mono- and polyvalent counterion donors; assay type: physicochemical
Method: (§1) To examine the precipitation, therapeutic agent solution(s) and counterion donor(s), or therapeutic agent solution(s) and combination of counterion donors were mixed, followed by vigorous agitation and high speed centrifugation to separate insoluble precipitate and free form therapeutic agent(s). The concentration of the free form therapeutic agent(s) was determined by measuring the corresponding absorbance with a plate reader.
Various compositions were prepared by mixing 60 mg/mL of irinotecan solution and liposomes with 1 mM to 22.5 mM of dextran sulfate (molecular weight 1,600), or with 300 mM of ammonium sulfate and 1 mM to 22.5 mM of dextran sulfate (molecular weight 1,600), followed by vigorous agitation by vortex and centrifugation at 21,460×g for 30 minutes to separate insoluble precipitate from free-form irinotecan. The volume ratio for mixing the irinotecan solution and the counterion donor solution was 1:2, with the final equivalent counterion donor concentrations shown in Table 13.

[2] = Precipitation study of vinorelbine with mono- and polyvalent counterion donors; assay type: physicochemical
Method: As shown in Example 7, the percentage of encapsulated vinorelbine remaining after plasma incubation is adjustable according to the present invention. The percentage of encapsulated therapeutic agent remaining after plasma incubation can be monitored by precipitation among encapsulated therapeutic agent(s) and counterion donor(s) in the aqueous environment as in FIG. 1, FIG. 5, and FIG. 6. The counterion donors could be selected from monovalent counterion donor(s), polyvalent counterion donor(s), or a combination thereof.
as §1
Various compositions were prepared by mixing 60 mg/mL of vinorelbine solution and liposomes with 1 mM to 22.5 mM of dextran sulfate (molecular weight 1,600), or with 300 mM of ammonium sulfate and 1 mM to 22.5 mM of dextran sulfate (molecular weight 1,600), followed by vigorous agitation by vortex and centrifugation at 21,460×g for 30 minutes to separate insoluble precipitate from free-form vinorelbine. The volume ratio for mixing the vinorelbine solution and the counterion donor solution was 1:2, with the final equivalent counterion donor concentrations shown in Table 12.

[3] = AS = 0 mM, DS = 0.67 mM (5.27 mEq/L)
[4] = AS = 0 mM, DS = 2.5 mM (19.68 mEq/L)
[5] = AS = 0 mM, DS = 5 mM (39.35 mEq/L)
[6] = AS = 0 mM, DS = 15 mM (118.05 mEq/L)
[7] = AS = 200 mM, DS = 0 mM (0 mEq/L)
[8] = AS = 200 mM, DS = 0.67 mM (5.27 mEq/L)
[9] = AS = 200 mM, DS = 2.5 mM (19.68 mEq/L)
[10] = AS = 200 mM, DS = 5 mM (39.35 mEq/L)
[11] = AS = 200 mM, DS = 15 mM (118.05 mEq/L)

## CCc1c2c(nc3ccc(OC(=O)N4CCC(N5CCCCC5)CC4)cc13)-c1cc3c(c(=O)n1C2)COC(=O)[C@]3(O)CC [irinotecan]
[1]; AS = 0 mM, DS = 0 mM
  Percentage of free-form CPT11 remaining: 103.4%
[1]; [3]
  Percentage of free-form CPT11 remaining: 82.0%
[1]; AS = 0 mM, DS = 1.6 mM (12.59 mEq/L)
  Percentage of free-form CPT11 remaining: 50.9%
[1]; [4]
  Percentage of free-form CPT11 remaining: 27.3%
[1]; [5]
  Percentage of free-form CPT11 remaining: 2.3%
[1]; [6]
  Percentage of free-form CPT11 remaining: 3.8%
[1]; [7]
  Percentage of free-form CPT11 remaining: 101.1%
[1]; [8]
  Percentage of free-form CPT11 remaining: 83.8%
[1]; AS = 200 mM, DS = 1.6 mM (12.59 mEq/L)
  Percentage of free-form CPT11 remaining: 59.4%
[1]; [9]
  Percentage of free-form CPT11 remaining: 38.3%
[1]; [10]
  Percentage of free-form CPT11 remaining: 9.7%
[1]; [11]
  Percentage of free-form CPT11 remaining: 9.0%
[1]; FIG. 6 left
  visible precipitation with sodium dextran sulfate: precipitation
[1]; FIG. 6 right
  visible precipitation with ammonium sulfate: no visible precipitation
[1]; maximum, at DS of 19.68 mEq/L
  enhancement of free-form irinotecan by ammonium sulfate (as compared to DS alone): up to 11%

## CCC1=C[C@@H]2CN(C1)Cc1c([nH]c3ccccc13)[C@@](C(=O)OC)(c1cc3c(cc1OC)N(C)[C@H]1[C@@](O)(C(=O)OC)[C@H](OC(C)=O)[C@]4(CC)C=CCN5CC[C@]31[C@@H]54)C2 [vinorelbine]
[2]; AS = 0 mM, DS = 0 mM
  Percentage of free-form VNB remaining: 100.7%
[2]; [3]
  Percentage of free-form VNB remaining: 87.1%
[2]; [4]
  Percentage of free-form VNB remaining: 54.0%
[2]; [5]
  Percentage of free-form VNB remaining: 11.0%
[2]; [6]
  Percentage of free-form VNB remaining: 5.4%
[2]; [7]
  Percentage of free-form VNB remaining: 97.6%
[2]; [8]
  Percentage of free-form VNB remaining: 83.3%
[2]; [9]
  Percentage of free-form VNB remaining: 59.0%
[2]; [10]
  Percentage of free-form VNB remaining: 21.2%
[2]; [11]
  Percentage of free-form VNB remaining: 5.7%
[2]; FIG. 5 left
  visible precipitation with sodium dextran sulfate: precipitation
[2]; FIG. 5 right
  visible precipitation with ammonium sulfate: no visible precipitation
[2]; maximum, at DS of 39.35 mEq/L
  enhancement of free-form vinorelbine by ammonium sulfate (as compared to DS alone): up to 10.2%
